Assay results as given in PubChem BioAssay (NCI).
Values joined by “and” are separate entries in the source; they are usually repeats but may differ in a detail not shown here. Equal values may be shown once.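 Assay format: 96-well plates, 48-hour exposure. Abbreviation: GI50, concentration required for 50% inhibition of growth. The concentration for full growth arrest is given as TGI.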

Experiments:
Test in all cases: NCI anticancer screen, dose series, 48 h
M14 melanoma = test system: M14 melanoma
CAKI-1 renal = test system: CAKI-1 renal
CCRF-CEM leukemia = test system: CCRF-CEM leukemia
HCC-2998 colon = test system: HCC-2998 colon
DMS 114 small cell lung = test system: DMS 114 small cell lung
U251 CNS = test system: U251 CNS
HL-60(TB) leukemia = test system: HL-60(TB) leukemia
LXFL 529 NSCLC = test system: LXFL 529 NSCLC
DLD-1 colon = test system: DLD-1 colon
OVCAR-4 ovarian = test system: OVCAR-4 ovarian
NCI-H23 lung = test system: NCI-H23 lung
MOLT-4 leukemia = test system: MOLT-4 leukemia
SW-620 colon = test system: SW-620 colon
SN12C renal = test system: SN12C renal
SNB-75 CNS = test system: SNB-75 CNS
EKVX NSCLC = test system: EKVX NSCLC
TK-10 renal = test system: TK-10 renal
COLO 205 colon = test system: COLO 205 colon
SF-268 CNS = test system: SF-268 CNS
SF-539 CNS = test system: SF-539 CNS
OVCAR-8 ovarian = test system: OVCAR-8 ovarian
KM20L2 colon = test system: KM20L2 colon
NCI-H460 lung = test system: NCI-H460 lung
OVCAR-3 ovarian = test system: OVCAR-3 ovarian
UACC-257 melanoma = test system: UACC-257 melanoma
OVCAR-5 ovarian = test system: OVCAR-5 ovarian
M19-MEL melanoma = test system: M19-MEL melanoma
SNB-78 CNS = test system: SNB-78 CNS
SK-MEL-28 melanoma = test system: SK-MEL-28 melanoma
NCI-H522 lung = test system: NCI-H522 lung
HOP-92 NSCLC = test system: HOP-92 NSCLC
K-562 leukemia = test system: K-562 leukemia
RXF 393 renal = test system: RXF 393 renal
SF-295 CNS = test system: SF-295 CNS
SK-OV-3 ovarian = test system: SK-OV-3 ovarian
LOX IMVI melanoma = test system: LOX IMVI melanoma
KM12 colon = test system: KM12 colon
A549 NSCLC = test system: A549 NSCLC
SR leukemia = test system: SR leukemia
ACHN renal = test system: ACHN renal
UACC-62 melanoma = test system: UACC-62 melanoma
SK-MEL-2 melanoma = test system: SK-MEL-2 melanoma
HCT-116 colon = test system: HCT-116 colon
786-0 renal = test system: 786-0 renal
DMS 273 small cell lung = test system: DMS 273 small cell lung
HT29 colon = test system: HT29 colon
SK-MEL-5 melanoma = test system: SK-MEL-5 melanoma
NCI-H226 lung = test system: NCI-H226 lung
HOP-62 NSCLC = test system: HOP-62 NSCLC
SNB-19 CNS = test system: SNB-19 CNS
RPMI-8226 leukemia = test system: RPMI-8226 leukemia
MALME-3M melanoma = test system: MALME-3M melanoma
A498 renal = test system: A498 renal
UO-31 renal = test system: UO-31 renal
IGROV1 ovarian = test system: IGROV1 ovarian
PC-3 prostate = test system: PC-3 prostate
MDA-N = test system: MDA-N
HCT-15 colon = test system: HCT-15 colon
HOP-18 NSCLC = test system: HOP-18 NSCLC
BT-549 breast = test system: BT-549 breast
MCF7 breast = test system: MCF7 breast
MDA-MB-435 = test system: MDA-MB-435
MDA-MB-231 breast = test system: MDA-MB-231 breast
HS 578T breast = test system: HS 578T breast
DU-145 prostate = test system: DU-145 prostate
NCI/ADR-RES ovarian = test system: NCI/ADR-RES ovarian
XF 498 CNS = test system: XF 498 CNS

## Cc1cn2c(=O)c3ccccc3nc2s1
M14 melanoma
  TGI: > 100 µM
CAKI-1 renal
  TGI: > 100 µM
CCRF-CEM leukemia
  TGI: > 100 µM
HCC-2998 colon
  TGI: > 100 µM
DMS 114 small cell lung
  TGI: > 100 µM
U251 CNS
  TGI: > 100 µM
HL-60(TB) leukemia
  TGI: > 100 µM
LXFL 529 NSCLC
  TGI: > 100 µM
DLD-1 colon
  TGI: > 100 µM
OVCAR-4 ovarian
  TGI: > 100 µM
NCI-H23 lung
  TGI: > 100 µM
MOLT-4 leukemia
  TGI: > 100 µM
SW-620 colon
  TGI: > 100 µM
SN12C renal
  TGI: > 100 µM
SNB-75 CNS
  TGI: > 100 µM
EKVX NSCLC
  TGI: > 100 µM
TK-10 renal
  TGI: > 100 µM
COLO 205 colon
  TGI: > 100 µM
SF-268 CNS
  TGI: > 100 µM
SF-539 CNS
  TGI: > 100 µM
OVCAR-8 ovarian
  TGI: > 100 µM
KM20L2 colon
  TGI: > 100 µM
NCI-H460 lung
  TGI: > 100 µM
OVCAR-3 ovarian
  TGI: > 100 µM
UACC-257 melanoma
  TGI: > 100 µM
OVCAR-5 ovarian
  TGI: > 100 µM
M19-MEL melanoma
  TGI: > 100 µM
SNB-78 CNS
  TGI: > 100 µM
SK-MEL-28 melanoma
  TGI: > 100 µM
NCI-H522 lung
  TGI: > 100 µM
HOP-92 NSCLC
  TGI: > 100 µM
K-562 leukemia
  TGI: > 100 µM
RXF 393 renal
  TGI: > 100 µM
SF-295 CNS
  TGI: > 100 µM
SK-OV-3 ovarian
  TGI: > 100 µM
LOX IMVI melanoma
  TGI: > 100 µM
KM12 colon
  TGI: > 100 µM
A549 NSCLC
  TGI: > 100 µM
SR leukemia
  TGI: > 100 µM
ACHN renal
  TGI: > 100 µM
UACC-62 melanoma
  TGI: > 100 µM
SK-MEL-2 melanoma
  TGI: > 100 µM
HCT-116 colon
  TGI: > 100 µM
786-0 renal
  TGI: > 100 µM
DMS 273 small cell lung
  TGI: > 100 µM
HT29 colon
  TGI: > 100 µM
SK-MEL-5 melanoma
  TGI: > 100 µM
NCI-H226 lung
  TGI: > 100 µM
HOP-62 NSCLC
  TGI: > 100 µM
SNB-19 CNS
  TGI: > 100 µM
RPMI-8226 leukemia
  TGI: > 100 µM
MALME-3M melanoma
  TGI: > 100 µM
A498 renal
  TGI: > 100 µM
UO-31 renal
  TGI: > 100 µM
IGROV1 ovarian
  TGI: > 100 µM

## NC(CCC(=O)NC(CSC(=O)N(O)c1ccc(Br)cc1)C(=O)NCC(=O)O)C(=O)O (stereo unspecified)
PC-3 prostate
  TGI: > 50 µM
M14 melanoma
  TGI: > 100 µM
CAKI-1 renal
  TGI: > 100 µM
CCRF-CEM leukemia
  TGI: > 100 µM
HCC-2998 colon
  TGI: > 100 µM
DMS 114 small cell lung
  TGI: > 100 µM
U251 CNS
  TGI: > 100 µM
HL-60(TB) leukemia
  TGI: > 100 µM
LXFL 529 NSCLC
  TGI: > 100 µM
DLD-1 colon
  TGI: > 100 µM
OVCAR-4 ovarian
  TGI: > 100 µM
NCI-H23 lung
  TGI: > 100 µM
MOLT-4 leukemia
  TGI: > 100 µM
SW-620 colon
  TGI: > 100 µM
SN12C renal
  TGI: > 100 µM
SNB-75 CNS
  GI50: 62.3 µM and 7.52 µM
  TGI: > 100 µM
MDA-N
  TGI: > 50 µM
EKVX NSCLC
  TGI: > 100 µM
HCT-15 colon
  TGI: > 100 µM
HOP-18 NSCLC
  TGI: > 100 µM
TK-10 renal
  TGI: > 100 µM
COLO 205 colon
  TGI: > 100 µM
BT-549 breast
  TGI: > 50 µM
SF-268 CNS
  TGI: > 100 µM
SF-539 CNS
  TGI: > 100 µM
OVCAR-8 ovarian
  TGI: > 100 µM
MCF7 breast
  TGI: > 50 µM
KM20L2 colon
  TGI: > 100 µM
NCI-H460 lung
  TGI: > 100 µM
OVCAR-3 ovarian
  TGI: > 100 µM
UACC-257 melanoma
  TGI: > 100 µM
OVCAR-5 ovarian
  TGI: > 100 µM
M19-MEL melanoma
  TGI: > 100 µM
SNB-78 CNS
  TGI: > 100 µM
SK-MEL-28 melanoma
  TGI: > 100 µM
NCI-H522 lung
  TGI: > 100 µM
HOP-92 NSCLC
  TGI: > 100 µM
K-562 leukemia
  TGI: > 100 µM
RXF 393 renal
  TGI: > 100 µM
SF-295 CNS
  TGI: > 100 µM
SK-OV-3 ovarian
  TGI: > 100 µM
LOX IMVI melanoma
  TGI: > 100 µM
KM12 colon
  GI50: > 100 µM and 45 µM
  TGI: > 100 µM
A549 NSCLC
  TGI: > 100 µM
SR leukemia
  TGI: > 100 µM
ACHN renal
  TGI: > 100 µM
UACC-62 melanoma
  TGI: > 100 µM
MDA-MB-435
  TGI: > 50 µM
MDA-MB-231 breast
  TGI: > 50 µM
SK-MEL-2 melanoma
  TGI: > 100 µM
HCT-116 colon
  TGI: > 100 µM
HS 578T breast
  TGI: > 50 µM
786-0 renal
  TGI: > 100 µM
DU-145 prostate
  TGI: > 50 µM
NCI/ADR-RES ovarian
  TGI: > 50 µM
DMS 273 small cell lung
  TGI: > 100 µM
HT29 colon
  TGI: > 100 µM
SK-MEL-5 melanoma
  TGI: > 100 µM
NCI-H226 lung
  TGI: > 100 µM
HOP-62 NSCLC
  TGI: > 100 µM
SNB-19 CNS
  TGI: > 100 µM
RPMI-8226 leukemia
  TGI: > 100 µM
MALME-3M melanoma
  TGI: > 100 µM
A498 renal
  TGI: > 100 µM
UO-31 renal
  TGI: > 100 µM
IGROV1 ovarian
  TGI: > 100 µM

## O=C(C[n+]1ccccc1)NNC(=O)/C(=C/c1ccc2c(c1)OCO2)NC(=O)c1ccccc1
M14 melanoma
  TGI: > 100 µM
CAKI-1 renal
  TGI: > 100 µM
CCRF-CEM leukemia
  TGI: 65 µM
HCC-2998 colon
  TGI: > 100 µM
DMS 114 small cell lung
  TGI: 46.4 µM
U251 CNS
  TGI: > 76.5 µM
HL-60(TB) leukemia
  TGI: 64.8 µM
LXFL 529 NSCLC
  TGI: > 77.2 µM
DLD-1 colon
  TGI: > 62.2 µM
OVCAR-4 ovarian
  TGI: > 94.5 µM
NCI-H23 lung
  TGI: > 100 µM
MOLT-4 leukemia
  TGI: 82.7 µM
SW-620 colon
  TGI: > 100 µM
SN12C renal
  TGI: > 100 µM
SNB-75 CNS
  TGI: > 95.9 µM
EKVX NSCLC
  TGI: > 100 µM
HCT-15 colon
  TGI: > 63.5 µM
HOP-18 NSCLC
  TGI: > 84.7 µM
TK-10 renal
  TGI: > 100 µM
COLO 205 colon
  TGI: > 65.5 µM
SF-268 CNS
  TGI: > 100 µM
SF-539 CNS
  TGI: 75.1 µM
OVCAR-8 ovarian
  TGI: > 85 µM
KM20L2 colon
  TGI: > 100 µM
NCI-H460 lung
  TGI: 98.3 µM
OVCAR-3 ovarian
  TGI: > 100 µM
UACC-257 melanoma
  TGI: > 100 µM
OVCAR-5 ovarian
  TGI: > 100 µM
M19-MEL melanoma
  TGI: > 100 µM
SNB-78 CNS
  TGI: > 100 µM
SK-MEL-28 melanoma
  TGI: > 100 µM
NCI-H522 lung
  TGI: > 70.8 µM
HOP-92 NSCLC
  TGI: > 100 µM
K-562 leukemia
  TGI: > 100 µM
RXF 393 renal
  TGI: > 83.9 µM
SF-295 CNS
  TGI: > 100 µM
SK-OV-3 ovarian
  TGI: > 100 µM
LOX IMVI melanoma
  TGI: 49 µM
KM12 colon
  TGI: > 100 µM
A549 NSCLC
  TGI: > 100 µM
SR leukemia
  TGI: 36.6 µM
ACHN renal
  TGI: > 100 µM
UACC-62 melanoma
  TGI: > 100 µM
XF 498 CNS
  TGI: > 83.5 µM
SK-MEL-2 melanoma
  TGI: > 100 µM
HCT-116 colon
  TGI: > 100 µM
786-0 renal
  TGI: > 90.7 µM
DMS 273 small cell lung
  TGI: > 69.8 µM
HT29 colon
  TGI: > 100 µM
SK-MEL-5 melanoma
  TGI: 98.4 µM
NCI-H226 lung
  TGI: > 92.4 µM
HOP-62 NSCLC
  TGI: > 100 µM
SNB-19 CNS
  TGI: > 100 µM
RPMI-8226 leukemia
  TGI: 63 µM
MALME-3M melanoma
  TGI: > 100 µM
A498 renal
  TGI: > 100 µM
UO-31 renal
  TGI: > 100 µM
IGROV1 ovarian
  TGI: > 100 µM
